Assays:
ARPE-19 cells under UOS = assay: Western blot of pro-survival and pro-apoptotic proteins in RPE cells under UOS; format: cell-based, human; conditions: for pro-apoptotic protein Bax / pro-apoptotic protein Bid / pro-apoptotic protein Bim: ARPE-19 cells under UOS; for SIRT1 expression: RPE under UOS; for Prohibitin (type-1) expression: concentration-dependent (100 and 250 nM); for Sirtuin1 (SIRT1) expression: dose-dependent, 100-200 nM
Method: ARPE19 cells at 75-80% confluence (72 h growth in DMEM/F12+10% FBS) in 6-well plates were serum-starved for 8 h before exposure. The serum-starved cells were treated with TNF-α (Sigma-Aldrich, St. Louis, Mo.) (10 ng/ml) and H2O2 (600 μM) to induce oxidative stress and challenged with increasing concentrations (50-500 nM) of VLC-PUFA (C32:6n3 and C34:6n3) simultaneously with oxidative stress for 16 h (apoptosis) and 6 h (Western-blot) before detection of apoptosis and harvesting for protein analysis. In some experiments, DHA at a concentration of 100 nM and 15-LOX-1 inhibitor PD146176 at a concentration of 1 μM was added to treat the RPE cells under stress. Cell extracts were made and protein concentrations adjusted by Bio-Rad (Hercules, Calif.) protein reagent and used for Western blot analysis.
Bcl-2 family proteins, SIRT1 and Proinhibitin (type-1), and Iduna proteins were analyze by Western blot analysis. In brief, 20-25 μg equivalents of each cell extracts were subject to electrophoresis on a 4-12% gel (Promega) at 125 V for 2 h. The proteins were transferred to nitrocellulose membrane by I-blot transfer apparatus. The membranes were subjected to treatment with primary antibodies specific for Bcl-2, Bcl-xL, Bax, Bid, Bim, SIRT1 and Prohibitin (type-1) (Santa Cruz Biotechnology) and Iduna antibody (Neuro-Mab Lab, UCLA, Los Angeles, Calif.) overnight at 4° C. and probed for 45 mins with secondary antibody, goat anti-mouse Ig:horseradish peroxidase, and horseradish peroxidase-conjugated anti-biotin antibody, and then proteins were evaluated by using an ECL kit (Amersham).

[1] = tested on: cerebral-cortical mixed neuronal cells and hippocampal neurons; assay: NMDA excitotoxicity of neurons in culture, cell viability; format: cell-based, rat; conditions: for synergy with NPD1 in neuroprotection against NMDA excitotoxicity: ELV 200 nM with NPD1 100 nM; for synergy with NPD1 in neuroprotection against NMDA excitotoxicity / neuroprotection against NMDA excitotoxicity (Hoechst): NMDA 100 μM; for synergy with NPD1 in neuroprotection against NMDA excitotoxicity / NMDA-induced neuronal death / neuroprotection against NMDA excitotoxicity (Hoechst): 12 h; for NMDA-induced neuronal death: ELV (Na or Me) 200 nM or 500 nM added along with NMDA 25, 50 or 100 μM; for neuroprotection with MK801 and NPD1 added together: compared with ELV-N32-Na or ELV-N32-Me alone; for neuroprotection against NMDA excitotoxicity (Hoechst): 500 nM, DIV 12
Source text: (§1) Primary cultures of cortical and hippocampal neurons were harvested from 18-day-old embryos (E18) taken from timed-pregnant, two-month-old Sprague-Dawley (SD) rats (Charles River Lab., Wilmington, Mass.). Briefly, timed-pregnant SD rats were euthanized and embryos were collected in sterile conditions. Embryonic brains were dissected out by forceps on ice and placed in a petri dish containing ice-cold Hank's Balanced Salt Solution (HBSS) (GIBCO). Meninges were removed under a dissecting microscope and cortical tissues were chopped into small pieces with micro-spring scissors. These tissues were transferred to 15 ml tubes containing trypsin-EDTA (0.025% in HBSS) and DNase I. The tubes were incubated in 37° C. chamber for 15 mins and were agitated every 5 mins. After stopping the trypsinization with 5 ml 10% FBS, these tissues were triturated 15 times with a fire polished Pasteur pipet. Cell clumps were left to settle for 2 mins and the supernatant was transferred to a 15 ml Eppendorf tube. The supernatant was filtered through a 70 μm pore-sized filter (Corning cell strainer) and centrifuged for 5 mins at 1000 rpm. The cells were then resuspended in Neurobasal medium (GIBCO) containing 2% B27 (GIBCO) and 2% N2 (GIBCO) supplements, along with 0.5 mM glutamine, 50 U/ml penicillin/streptomycin.
(§2) Cells were counted using a Neubauer hemocytometer. 1×10^6 cells were seeded on poly-D-lysine-coated 12 well cell culture dish (CORNING) and cultured in incubator (37° C., 5% CO2). Culture medium was first replaced after 24 h, then half of the medium was replaced with fresh medium every three days. As a result, approximately, 90% purity of neurons was obtained as determined by class-III-β tubulin, GFAP and Hoechst 33258 staining. Cells were maintained in culture for about 2 weeks until they were exposed to uncompensated oxidative stress, OGD, or NMDA excitotoxicity.
After 90 mins of OGD exposure, cells were returned to the original medium (Neurobasal medium (GIBCO) containing 2% B27 (GIBCO) and 2% N2 (GIBCO) supplements, along with 0.5 mM glutamine, 50 U/ml penicillin/streptomycin) and placed in a normoxic chamber (37° C., 5% CO2) for 2 h. Then the medium was changed with medium containing either ELV-N32 or ELV-N34 [500 nM] and maintained in a normoxic chamber (37° C., 5% CO2) for 12 h, after which cells were sampled and assayed for cell viability using different methods as previously described (25-28). Cerebral cortical mixed neuronal cells or hippocampal cells in culture were exposed to either NMDA or uncompensated oxidative stress (UOS) for 12 h by addition of either NMDA (25 μM, 50 μM, or 100 μM) concentration or by the addition of TNFα (10 ng/mL) and H2O2 (50 μM, 100 μM, or 200 μM). Cell viability and neuroprotection in the presence of ELV-N32, ELV-N34, 32:6, or 34:6 were assayed after 12 h.
Cells were washed with 1× Dulbecco's Phosphate Buffered Saline (DPBS) containing no calcium or magnesium (GIBCO) and fixed for 10 mins using ice-cold 4% paraformaldehyde (PFA) followed by 15 mins incubation in 100% methanol. Cells were washed with 1× Phosphate Buffered Saline (PBS) pH 7.4 (GIBCO) and incubated in PBS containing 20 μM Hoechst 33258 (Molecular Probes) for 20 mins. Cells were then washed 3 times with 1×PBS and stored in 1×PBS at 4° C. until they were imaged for microscopy.
One 4×4 tile mosaic was acquired from the center of each well using a Zeiss 510 Meta laser confocal microscope and LSM 510 Meta software. Images were imported into image analysis software ImageJ (National Institutes of Health, Bethesda, Md.) and batch processed using custom macros. An Otsu auto threshold was applied to each image of Hoechst-stained nuclei, and the area of each detected object was recorded. Objects with areas <10 μm^2 were excluded from analysis. To estimate percentage non-pyknotic nuclei, a size cutoff value was chosen above which objects were assumed to be non-pyknotic. […]

[2] = tested on: cerebral-cortical mixed neuronal cells; assay: Uncompensated oxidative stress (TNFα plus H2O2) of neurons in culture; format: cell-based, rat; conditions: 200 nM; TNFα 10 ng/mL and H2O2 (50, 100 or 200 μM), 12 h
Source text: as §1
as §2, with “Cells were maintained in culture for about 2 weeks until they were exposed to uncompensated oxidative stress, OGD, or NMDA excitotoxicity.” left out
One 4×4 tile mosaic was acquired from the center of each well using a Zeiss 510 Meta laser confocal microscope and LSM 510 Meta software. […] An Otsu auto threshold was applied to each image of Hoechst-stained nuclei, and the area of each detected object was recorded. […]

Row | Compound | anti-apoptotic protein Bcl-2 (ARPE-19 cells under UOS; RPE cells under UOS) | anti-apoptotic protein Bcl-xL (ARPE-19 cells under UOS; RPE cells under UOS) | pro-apoptotic protein Bax (ARPE-19 cells under UOS; VLC-PUFA) | pro-apoptotic protein Bid (ARPE-19 cells under UOS; VLC-PUFA) | pro-apoptotic protein Bim (ARPE-19 cells under UOS; VLC-PUFA) | Iduna expression (ARPE-19 cells under UOS; VLC-PUFA, RPE cells under UOS) | SIRT1 expression (ARPE-19 cells under UOS; VLC-PUFA) | Prohibitin (type-1) expression (ARPE-19 cells under UOS; VLC-PUFA) | neuroprotection against uncompensated oxidative stress [2] | synergy with NPD1 in neuroprotection against NMDA excitotoxicity [1] | NMDA-induced neuronal death [1] | neuroprotection with MK801 and NPD1 added together [1] | Iduna expression (ARPE-19 cells under UOS; 200 nM) | Sirtuin1 (SIRT1) expression (ARPE-19 cells under UOS) | neuroprotection against NMDA excitotoxicity (Hoechst) [1] | other results
1 | CC/C=C\C/C=C\C/C=C\C/C=C\C/C=C\C/C=C\CCCCCCCCCCCCC(=O)O [32:6n3, (14Z,17Z,20Z,23Z,26Z,29Z)-dotriaconta-14,17,20,23,26,29-hexaenoic acid] | upregulate | upregulate | down regulated | down regulated | down regulated | upregulation | upregulation | upregulation |  |  |  |  |  |  |  | NMDA excitotoxicity ([1]; precursor at 250 nM): attenuate NMDA excitotoxicity
2 | CC/C=C\C/C=C\C/C=C\C/C=C\C/C=C\C/C=C\CCCCCCCCCCCCCCC(=O)O [34:6n3, (16Z,19Z,22Z,25Z,28Z,31Z)-tetratriaconta-16,19,22,25,28,31-hexaenoic acid] | upregulate | upregulate | down regulated | down regulated | down regulated | upregulation | upregulation | upregulation |  |  |  |  |  |  |  | NMDA receptor-mediated excitotoxicity ([1]; precursor at 500 nM): attenuates NMDA receptor-mediated excitotoxicity
3 | CC/C=C\C[C@H](O)\C=C/C=C/C=C/[C@H](O)C/C=C\C/C=C\CCCCCCCCCCCCC(=O)OC [ELV-N32-Me, methyl (14Z,17Z,20R,21E,23E,25Z,27S,29Z)-20,27-dihydroxydotriaconta-14,17,21,23,25,29-hexaenoate] |  |  |  |  |  |  |  |  | evoked neuroprotection | showed synergy | compensated for | improved the neuroprotection |  |  |  | relative potency of the combination with NPD1 ([1]; ELV-N32-Me plus NPD1 versus ELV-N32-Na plus NPD1): more potent
4 | CC/C=C\C[C@H](O)\C=C/C=C/C=C/[C@H](O)C/C=C\C/C=C\CCCCCCCCCCCCC(=O)[O-].[Na+] [ELV-N32-Na, sodium (14Z,17Z,20R,21E,23E,25Z,27S,29Z)-20,27-dihydroxydotriaconta-14,17,21,23,25,29-hexaenoate] | enhanced the abundance | enhanced the abundance |  |  |  |  |  |  | evoked neuroprotection | showed synergy | compensated for | improved the neuroprotection | enhanced Iduna expression | upregulate | neuroprotection elicited | relative potency in upregulating SIRT1 (ARPE-19 cells under UOS; ELV-N32-Na versus ELV-N34-Na): more potent than ELV-N34-Na
5 | CC/C=C\C[C@H](O)\C=C/C=C/C=C/[C@H](O)C/C=C\C/C=C\CCCCCCCCCCCCCCC(=O)OC [ELV-N34-Me, methyl (16Z,19Z,22R,23E,25E,27Z,29S,31Z)-22,29-dihydroxytetratriaconta-16,19,23,25,27,31-hexaenoate] |  |  |  |  |  |  |  |  |  |  |  |  |  |  | neuroprotection elicited | 
6 | CC/C=C\C[C@H](O)\C=C/C=C/C=C/[C@H](O)C/C=C\C/C=C\CCCCCCCCCCCCCCC(=O)[O-].[Na+] [ELV-N34-Na, sodium (16Z,19Z,22R,23E,25E,27Z,29S,31Z)-22,29-dihydroxytetratriaconta-16,19,23,25,27,31-hexaenoate] | enhanced the abundance | enhanced the abundance |  |  |  |  |  |  | neuroprotection elicited |  |  |  | enhanced Iduna expression | upregulate |  | 
